Experimental data reported in patent US10662407B2, “Method for controlling differentiation of embryonic stem cells into adipocytes or kidney precursor cells by regulating SIRT1 expression” (INDUSTRIAL COOPERATION FOUNDATION CHONBUK NATIONAL …, priority 2015, dated 2020).

Key:
Six2 mRNA expression = assay: Quantitative PCR of Six2 mRNA during differentiation of embryonic stem cells into kidney precursor cells; type: cell-based, mouse; conditions: for mRNA expression level of Six2: embryonic stem cells, EX527 5-10 uM, resveratrol 10-20 uM, FIG. 7B
Experimental: (§1) The cell culture media, from which Leukemia Inhibitory Factor (LIF; Milipore, USA) was removed, were treated with 100 nmol/L Retinoic acid and 10 ng/mL Activin A, and then mRNA expression levels of Six2 and WT1, kidney precursor cells, were measured. In the process of induction into kidney precursor cells, embryonic stem cells were inoculated into wells of a 6-well plate to be cultured therein.
(§2) The media for differentiation into kidney precursor cells were cultured by adding 2 mM Gluta MAX™ (Gibco, USA), 1× Non-essential aminoacid, (1×NEAA; Gibco, USA), 0.1 mM beta-mercaptoethanol (Invitrogen, USA) and […] to DMEM.
(§3) In the step for differentiation of embryonic stem cells into kidney precursor cells, mRNA expression levels of Six2 and WT1, indicators of kidney precursor cells, were measured by a PCR method. Each primer used in the PCR method was as represented in Table 2 and was manufactured by Bioneer (Korea). GAPDH was used as a control group for the reliability of the PCR method.
(§4) In the same manner as in Example 6, differentiation of embryonic stem cells into kidney precursor cells was induced, each cell was harvested on day 11 of differentiation induction and then total RNAs were extracted using TRIzol reagent (Life Technology, USA). The extracted RNAs were synthesized into cDNAs using a cDNA synthesis kit (Roche, Germany) and a PCR method was carried out using the primers represented in Table 2.
(§5) In order to confirm the differentiation of embryonic stem cells into kidney precursor cells according to the inhibition or promotion of SIRT1 protein expression, the differentiation of the embryonic stem cells (SIRT1+/+; WT) expressing the SIRT1 genes, which were prepared in Example 1, into kidney precursor cells was confirmed. The differentiation was confirmed by protein expression levels of Six2 and WT1, indicators of kidney precursor cells.
(§6) In the step for differentiation of embryonic stem cells into kidney precursor cells, mRNA expression levels of Six2 and WT1, indicators of kidney precursor cells, were measured by a quantitative PCR method.

WT1 mRNA expression = assay: Quantitative PCR of WT1 mRNA during differentiation of embryonic stem cells into kidney precursor cells; type: cell-based, mouse; conditions: for mRNA expression level of WT1: embryonic stem cells, EX527 5-10 uM, resveratrol 10-20 uM, FIG. 7A
Experimental: as §1, §2, §3, §4, §5, §6

C/EBP α mRNA expression = assay: PCR of C/EBP α mRNA during adipocyte differentiation of embryonic stem cells; type: cell-based, mouse; conditions: SIRT1+/+ cells treated with EX527 10 μM, harvested 7 and 10 days after induction, FIG. 3
Experimental: (§7) In the present disclosure, in order to confirm the mechanism of regulating the differentiation of embryonic stem cells into adipocytes by SIRT1, in the step of differentiating into adipocytes, mRNA expression levels of peroxisome proliferator-activated receptors-γ (PPARγ), CCAAT/enhancer-binding protein-α (C/EBP α) and fatty acid binding protein 4 (FABP4) in adipocytes were measured by a PCR method. Each primer used in the PCR method was as represented in Table 1 and was manufactured by Bioneer (Korea). GAPDH was used as a control group for the reliability of the PCR method.
(§8) In the same manner as in Example 2, differentiation of embryonic stem cells into adipocytes was induced, each cell was harvested on 7 and 10 days after induction of lipid differentiation, and total RNAs were extracted using TRIzol reagent (Life Technology, USA). The extracted RNAs were synthesized into cDNAs using a cDNA synthesis kit (Roche, Germany) and a PCR method was carried out using the primers represented in Table 1.

PPARγ mRNA expression = assay: PCR of PPARγ mRNA during adipocyte differentiation of embryonic stem cells; type: cell-based, mouse; conditions: SIRT1+/+ cells treated with EX527 10 μM, harvested 7 and 10 days after induction, FIG. 3
Experimental: as §7, §8

FABP4 mRNA expression = assay: PCR of FABP4 mRNA during adipocyte differentiation of embryonic stem cells; type: cell-based, mouse; conditions: SIRT1+/+ cells treated with EX527 10 μM, harvested 7 and 10 days after induction, FIG. 3
Experimental: as §7, §8

[1] = system: mouse embryonic stem cells (SIRT1+/+; WT), differentiation into adipocytes; assay: Oil Red O staining of embryonic stem cells differentiated into adipocytes; type: cell-based; conditions: for differentiation into adipocytes versus group without inhibitor (Oil Red O): EX527 10 μM, FIG. 4
Experimental: In the present disclosure, in order to determine whether differentiation of embryonic stem cells into adipocytes was affected by the presence or absence of SIRT1 protein expression, degrees of differentiation of the embryonic stem cells (SIRT1+/+; WT) expressing the SIRT1 genes and the mouse embryonic stem cells lacking SIRT1 genes (SIRT1−/−; KO), prepared in Example 1, were determined, and when EX527 (10 μM, Tocris, UK), SIRT1 inhibitor, was treated with SIRT1+/+ embryonic stem cells, the degree of lipid differentiation according to SITRT1 inhibition was determined.
In the hanging-drop culture, 1000 embryonic stem cells were added into 20 μl to prepare a single embryoid body, the process of induction into adipocytes was cultured by inoculating 15 cultures into each well using a 6-well plate.
The medium for differentiation into adipocyte was prepared by adding 85 nM insulin (Sigma, USA), 2 nM triiodothyronine (Sigma, USA) and 2 μM rosiglitazone (Sigma, USA) to DMEM and embryoid bodies were cultured, the medium exchange was performed daily.
In addition, SIRT1 inhibitor EX527 was added to SIRT1+/+ embryonic stem cells until the early 5th day of differentiation into adipocytes.
Oil Red O staining was performed to determine whether the differentiation into adipocytes was successfully performed in mouse embryonic stem cells differentiated for 21 days in Example 2.
First, SIRT1+/+ cells, SIRT1−/− cells, and SIRT1+/+ cells differentiated by treatment with SIRT1 inhibitor were treated with 10% formaldehyde to fix the cells, the formaldehyde was washed with phosphate buffered saline three times and then was treated with 60% isopropanol. Then, 2 ml Oil Red O staining solution was added and the mixture was stained at room temperature for 30 minutes in the dark, and then was washed with phosphate buffered saline three times.
Oil Red O staining was performed on the lipid droplets in the differentiated adipocytes. After staining, the cells were observed using a microscope to identify red-stained fat adipocytes.
When the observation was completed, stained dye in adipocyte was extracted using 1 ml isopropanol per well and optical density (OD) was measured at 500 nm with an ELISA reader. The Oil Red O staining solution is a solution of 500 mg of Oil Red O dye (Sigma, USA) in 100 ml isopropanol, mixed with distilled water at a ratio of 6:4 and filtered using a 0.45 μm filter.
In the same manner as in Example 2, differentiation of embryonic stem cells into adipocytes was induced. The samples were divided into various groups: a group treated for 0 to 5 days at the early stage of differentiation, a group treated for 7 to 21 days at the latter stage of differentiation, and a group treated for 0 to 21 days during the entire differentiation period, which were treated with the SIRT1 inhibitor.

Row | SMILES | mRNA expression level of Six2 (Six2 mRNA expression) | mRNA expression level of Six2 (Six2 mRNA expression; listed as SIRT1 inhibitor) | mRNA expression level of WT1 (WT1 mRNA expression) | mRNA expression level of WT1 (WT1 mRNA expression; listed as SIRT1 inhibitor) | mRNA expression of C/EBP α (C/EBP α mRNA expression) | mRNA expression of PPARγ (PPARγ mRNA expression) | mRNA expression of FABP4 (FABP4 mRNA expression) | differentiation into adipocytes versus group without inhibitor (Oil Red O) ([1]; treated 0 to 5 days, early stage of differentiation) | differentiation into adipocytes versus group without inhibitor (Oil Red O) ([1]; treated 0 to 21 days, entire differentiation period) | differentiation into adipocytes versus group without inhibitor (Oil Red O) ([1]; treated 7 to 21 days, latter stage of differentiation) | adipocyte differentiation (lipid droplets, Oil Red O staining, microscope) versus SIRT1+/+ cells ([1]; SIRT1+/+ cells, EX527 10 μM until early 5th day of differentiation, 21 days differentiation, FIG. 2A) | reduction of adipocyte differentiation (absorbance at 500 nm of extracted Oil Red O) ([1]; SIRT1+/+ cells, EX527 10 μM until early 5th day, compared to SIRT1+/+ cells, FIG. 2B) | expression of Six2 compared with control (Six2 mRNA expression; resveratrol 20 μM) | expression of WT1 compared with control (WT1 mRNA expression; resveratrol 20 μM)
1 | NC(=O)C1CCCc2c1[nH]c1ccc(Cl)cc21 (stereo not shown) [EX527, 6-Chloro-2,3,4,9-tetrahydro-1H-Carbazole-1-carboxamide] | significantly decreased | decreased | significantly decreased | decreased | significantly decreased | significantly decreased | significantly decreased | decrease in differentiation into adipocytes | not significantly different | more differentiated into adipocytes | remarkably lower | about 38% | – | –
2 | Oc1ccc(C=Cc2cc(O)cc(O)c2)cc1 [resveratrol] | significantly increased | – | significantly increased | – | – | – | – | – | – | – | – | – | significantly promoted | significantly promoted
